From patent publication EP0075626A1, “Novel rutin nona- and deca(H-)sulfate salts, methods of preparing novel salts, and use of novel salts of complement inhibitors” (AMERICAN CYANAMID COMPANY, priority 1981, dated 1983) come the findings set out here.

This test addresses T1, activated complement protein Cl (Homo sapiens, UniProt P09871).
T1 sequence (P09871 16-437 limits assumed): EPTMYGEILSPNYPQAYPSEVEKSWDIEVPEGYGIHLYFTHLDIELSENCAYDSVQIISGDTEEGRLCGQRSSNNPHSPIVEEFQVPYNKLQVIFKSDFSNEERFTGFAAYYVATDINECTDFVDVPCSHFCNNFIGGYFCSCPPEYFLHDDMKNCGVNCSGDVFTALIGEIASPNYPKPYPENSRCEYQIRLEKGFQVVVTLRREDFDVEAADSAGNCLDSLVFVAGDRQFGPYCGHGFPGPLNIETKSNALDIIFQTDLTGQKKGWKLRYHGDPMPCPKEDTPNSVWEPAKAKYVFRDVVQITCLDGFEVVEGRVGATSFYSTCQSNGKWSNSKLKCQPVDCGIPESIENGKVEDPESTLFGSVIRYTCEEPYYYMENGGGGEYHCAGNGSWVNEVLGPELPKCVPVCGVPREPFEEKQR
T1 sequence (P09871 438-688 limits assumed): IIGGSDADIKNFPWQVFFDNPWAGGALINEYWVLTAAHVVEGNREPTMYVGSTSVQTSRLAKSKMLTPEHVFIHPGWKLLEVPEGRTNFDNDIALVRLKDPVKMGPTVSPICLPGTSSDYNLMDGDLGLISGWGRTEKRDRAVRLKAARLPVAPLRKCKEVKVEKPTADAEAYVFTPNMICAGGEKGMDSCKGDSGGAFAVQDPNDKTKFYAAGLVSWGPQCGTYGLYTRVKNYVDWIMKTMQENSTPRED
As to the kind of experiment: Test Code 026 (C 1 inhibitor): protection of fluid phase C2 from activated C1 in the presence of C4, serial dilution assay. Type of test: biochemical. The settings on record: for times as active as the mixture of hexa- through deca- salts produced by Example 2 of European Application No. 13470A: Test Code 026, worked out from well numbers, two-fold serial dilutions; for In Vitro Activity Test Code 026: activity in wells, two-fold serial dilution assay, the higher the well number the higher the activity. An excerpt: An active inhibitor protects C2 from Cl and C4.
This test measures activity in wells by a serial dilution assay. The higher the well number the higher is the activity. The serial dilutions are two-fold, so that in the test shown above the rutin deca(H-)sulfate sodium salt in accordance with this invention is 16 times as active as the mixture of hexa- through deca- salts produced by Example 2 of European Application No. 13470A, whilst the rutin nona(H-)sulfate sodium salt in accordance with this invention is 8 times as active as the aforesaid mixture.

Turning to “Rutin nona (H-sulfate) Sodium Salt [Rutin nona(H-)sulfate sodium salt]”, the “times as active as the mixture of hexa- through deca- salts produced by Example 2 of European Application No. 13470A” value worked out at 8 times and the “In Vitro Activity Test Code 026” value is “+10”.

Take “Rutin deca (H-sulfate) Sodium Salt [Rutin deca(H-)sulfate sodium salt]”: the “times as active as the mixture of hexa- through deca- salts produced by Example 2 of European Application No. 13470A” value came to 16 times and the “In Vitro Activity Test Code 026” value is given as “+11”.
